From patent US8075900B2, “Melanoma associated peptide analogues and vaccines against melanoma” (The United States of America, as represented by the …, priority 1996, dated 2011)
“And” between values parts separate entries of the source, which are not always exact repeats. Equal entries are not always repeated. No end group written: not given here.

Target: T1, HLA-A*0201 (Homo sapiens, UniProt P04439, D140Y/D185E/D98H/E176V/E277Q/G131W/G231S/I119V/I121R/I166T/I218V/L300P/L318F/N151K/N90K/P208A/P217A/Q86G/Q94H/R138H/R169H/T345S)
T1 construct: Peptide-induced HLA-A*0201 upregulation on T2 cells was performed as described previously; endogenous in cells; host or cells: T2 cells (processing-defective, HLA-A*0201+)
Assay: Peptide-induced HLA-A*0201 upregulation/stabilization on T2 cells
Format: binding
Details: 25 μM peptide

Sequence | HLA-A*0201 stabilization (Fluorescence Index)
AAGIGILTA [alanine-substituted Melan-A/MART-1 27-35 analogue] | 1.03
AIGIGILTV [Melan-A/MART-1 27-35 N-terminal anchor-replacement analogue] | 1.29

Same assay, conditions: 50 μM peptide

Sequence | HLA-A*0201 stabilization (Fluorescence Index)
AAGIGILTA [alanine-substituted Melan-A/MART-1 27-35 analogue] | 1.00
AIGIGILTV [Melan-A/MART-1 27-35 N-terminal anchor-replacement analogue] | 1.58

Target: T1, HLA-A*0201
Assay: Competition based HLA-A*0201 peptide-binding assay on JY cells
Details: competition with Fluorescein labeled reference peptide at 4° C., mild acid treated HLA-A*0201+ B-LCL; read-out: Affinity IC50

Sequence | IC50
KIWGQYWQV | 600 nM
KLWGQYWQV | 400 nM
KTWGQYWAV | 500 nM
KVWGQYWQV | 800 nM

System: T2 target cells, Melan-A/MART-1 27-35-reactive TIL 1235 lymphocytes
Assay: Chromium-release assay, target cell sensitization for lysis by TIL 1235
Format: cell-based, human
Details: E:T 20:1, T2 target cells preincubated 90 min with 1 μM peptide, 5 hours

Sequence | target cell lysis by TIL 1235 (% specific lysis)
AAAIGILTV [alanine-substituted Melan-A/MART-1 27-35 analogue] | 13%
AAGAGILTV [alanine-substituted Melan-A/MART-1 27-35 analogue] | 0%
AAGIAILTV [alanine-substituted Melan-A/MART-1 27-35 analogue] | 4%
AAGIGALTV [alanine-substituted Melan-A/MART-1 27-35 analogue] | 2%
AAGIGIATV [alanine-substituted Melan-A/MART-1 27-35 analogue] | 6%
AAGIGILAV [alanine-substituted Melan-A/MART-1 27-35 analogue] | 11%
AAGIGILTA [alanine-substituted Melan-A/MART-1 27-35 analogue] | 26%
AGGIGILTV [glycine-substituted Melan-A/MART-1 27-35 analogue] | 6%
AIGIGILTV [Melan-A/MART-1 27-35 N-terminal anchor-replacement analogue] | 27%
ALGIGILTV [Melan-A/MART-1 27-35 N-terminal anchor-replacement analogue] | 16%
AMGIGILTV [Melan-A/MART-1 27-35 N-terminal anchor-replacement analogue] | 6%
AVGIGILTV [Melan-A/MART-1 27-35 N-terminal anchor-replacement analogue] | 27%
GAGIGILTV [glycine-substituted Melan-A/MART-1 27-35 analogue] | 52%
YLEPGPVTA [reference compound] | −3% and −1%

System: T2 target cells, gp100-reactive TIL 1200 lymphocytes
Assay: Chromium-release assay, target cell sensitization for lysis by TIL 1200
Format: cell-based, human
Details: E:T 20:1, T2 target cells preincubated 90 min with 1 μM peptide, 5 hours
Procedure: Chromium release assays were performed as described previously (Bakker et al., 1994, J. Exp. Med. 179:1005). […] Various amounts of effector cells were then added to the target cells in triplicate wells of U bottomed microliter plates (Costar, Badhoevedorp, The Netherlands) in a final volume of […]. […] After 5 h of incubation, part of the supernatant was harvested and its radioactive content was measured. The mean percentage specific lysis of triplicate wells was calculated using the formula: % specific lysis=((experimental release−spontaneous release)÷(maximal release−spontaneous release))×100.

Sequence | target cell lysis by TIL 1200 (% specific lysis)
ATWGQYWQV | 75%
KAWGQYWQV | 64%
KMWGQYWQV | 57%
KTAGQYWQV | 58%
KTWAQYWQV | 63%
KTWGAYWQV | 9%
KTWGQAWQV | 7%
KTWGQYAQV | −2%
KTWGQYWQA | 76%
YLEPGPVTA [reference compound] | 3%
